The METLIN SMRT retention time set (Domingo-Almenara et al. 2019)

Experiment: gradient 5% acetonitrile 3 min, to 50% in 2 min, to 85% in 15 min, held 3 min, 100 µL/min
Details: column: Zorbax Extend-C18 2.1 x 50 mm; eluents: water / acetonitrile, 0.1% formic acid
Procedure, shortened: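 The system's dead and dwell volumes were 40 μL and 900 μL, with a Zorbax Extend-C18 column (2.1 × 50 mm, 1.8 μm) run at 100 μL/min in water and acetonitrile containing 0.1% formic acid each. Pure standards were analyzed in mixtures of ~100 molecules by HPLC–quadrupole time-of-flight mass spectrometry in positive and negative ionization mode. Retention time was assigned from computationally picked, manually inspected adduct peaks.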

Row | RP-LC retention time [s] | Compound
1 | 600 | Cc1[nH]c(=O)[nH]c(=O)c1CCC(=O)N1CCC(c2nc3ccccc3o2)CC1
2 | 757 | O=C(CSCc1ccccc1)Nc1nnc(-c2ccsc2)o1
3 | 1110 | Cc1ccc(C)c(NC(=O)c2csc(-c3cn(C)c4ncccc34)n2)c1
4 | 708 | O=C(Nc1cccc(Br)c1)N1C[C@H]2C[C@H](C1)[C@H]1CCCC(=O)N1C2
5 | 1120 | Cc1ccc(N2CCN(S(=O)(=O)c3ccc(-c4nnc(C5CCC5)o4)o3)CC2)cc1
6 | 679 | COc1cc(NC(=O)Nc2c(-c3cccnc3)[nH]c3ccccc23)cc(OC)c1
7 | 601 | CCc1cc(N2CCN(C(=O)COc3ccccc3OC)CC2)nc2nncn12
8 | 702 | COc1cccc(CN2CCC(Oc3ccccc3-c3nc(-c4cnccn4)no3)C2)n1 (stereo not given)
9 | 889 | COc1ccc(Cl)cc1NC(=O)C1CCN(S(=O)(=O)c2cc(C(=O)N(C)C)cs2)CC1
10 | 961 | COc1ccc(C)cc1NC(=O)c1nc(-c2cn(Cc3ccc(F)cc3)nn2)no1
11 | 787 | CCc1nc(-c2csc(S(=O)(=O)N3CCCC(C(=O)NC4CC4)C3)c2)no1 (stereo not given)
12 | 559 | CCOC(=O)C1CCCN(Cc2cn3cc(F)ccc3n2)C1 (stereo not given)
13 | 604 | Cc1cc(N2CCN(c3ccccn3)CC2)n2nc(C(F)(F)F)nc2n1
14 | 866 | O=C(Nc1nnc(SCc2nnc(-c3ccccc3)o2)s1)c1ccccc1
15 | 598 | Cc1ccc2nc(C3CN(C(=O)c4c(-c5ccccc5Cl)noc4C)C3)[nH]c2c1
16 | 1200 | CCc1ccc(NS(=O)(=O)c2c(C)sc(C)c2-c2n[nH]c(C)c2C)cc1
17 | 932 | COc1cc(Br)cc(CC2C(=O)Nc3ccccc32)c1OC (stereo not given)
18 | 762 | O=C(Cn1nc2c(cc1=O)CCCCC2)Nc1cccc(N2CCCCS2(=O)=O)c1
19 | 778 | Cc1ccc(CN2C(=O)NC3(CCN(C(=O)c4ccsc4)CC3)C2=O)cc1
20 | 1040 | O=S(=O)(c1ccc2c(c1)OCCO2)N1CCCn2nc(-c3cccc(Cl)c3)cc2C1
21 | 1030 | Fc1ccc(-c2noc(Cc3nnc(-c4cc(F)cc(F)c4)o3)n2)cc1
22 | 985 | O=C(c1ccsc1)N1CCN(S(=O)(=O)c2cc(-c3noc(C4CCC4)n3)cs2)CC1

Row | RP-LC retention time [s] | Compound
23 | 843 | CC(C)Sc1ccc2nn(CC(=O)Nc3ccc(Br)cc3F)c(=O)n2n1
24 | 577 | Cc1nnc(NC(=O)CSc2cc(N3CCCC3)ncn2)s1
25 | 664 | Cc1cc(C)c(S(=O)(=O)NC(C)Cn2cncn2)c(C)c1 (stereo not given)
26 | 969 | CCOC(=O)C1CCN(C(=O)C2CCCN(c3nc4cccnc4n(CC)c3=O)C2)CC1 (stereo not given)
27 | 971 | O=S(=O)(Cc1cccc(Cl)c1)NCCc1noc(-c2ccccc2)n1
28 | 1020 | Cn1c(C(=O)NC2CCCCCC2)cc2sccc21
29 | 669 | CCC(C(=O)NCCCN1CCCC1)n1nc(C)c2sc3ccccc3c2c1=O (stereo not given)
30 | 792 | CCn1cnc(S(=O)(=O)N2CCC(C(=O)Nc3cccc4c3CCCC4)CC2)c1
31 | 1120 | Cc1ccccc1Oc1nccnc1N1CCCC(C(=O)NCc2cccc(C(F)(F)F)c2)C1 (stereo not given)
32 | 631 | CCNC(=O)c1nc(C(=O)NC2CC2)cs1
33 | 707 | O=c1[nH]c2ccc(NCc3ccc(Cl)c(Cl)c3)cc2[nH]1
34 | 703 | COc1ccc(-c2cc(N3CCN(C(=O)c4ccc5[nH]ccc5c4)CC3)n[nH]2)cc1
35 | 812 | O=C(Nc1ccc(N2CCOCC2)cc1)C1CN(S(=O)(=O)C2CC2)CC12CCCCC2 (stereo not given)
36 | 975 | CCCCN(CC)c1nc(-c2ccc([N+](=O)[O-])cc2)nc2ccccc12
37 | 933 | Cc1ccc(S(=O)(=O)CC(=O)Nc2nc(-c3ccccc3)cs2)cc1
38 | 977 | CCSc1nc2ccc(NS(=O)(=O)c3cccc4nsnc34)cc2s1
39 | 908 | CCNC(=O)N1CCCC(c2cccc(C(=O)NCc3ccc(CC)cc3)c2)C1 (stereo not given)
40 | 585 | COCCCNC(=O)C1CCCN(c2cc(=O)n(C)c(=O)n2C)C1 (stereo not given)
41 | 600 | CCCC(=O)N1CCCC1COc1ccc(C(=O)N2CCCC2)cc1 (stereo not given)
42 | 889 | CC(=O)N1CCc2cc(-c3ccc(C(=O)N4CCC(C)CC4)cc3)ccc21
43 | 798 | CCOC(=O)C1CCN(C(=O)c2ccc3c(c2)CCCN3S(=O)(=O)CC)CC1
44 | 1060 | CCc1nc(-c2csc(S(=O)(=O)N3CCCC(C(=O)N(C)c4ccc(C)cc4)C3)c2)no1 (stereo not given)

Row | RP-LC retention time [s] | Compound
45 | 857 | COC(=O)CNC(=O)C1c2ccccc2C(=O)N(Cc2ccccc2)C12CCCC2 (stereo not given)
46 | 910 | CCc1cc(C2CCCN2C(=O)Nc2ccccc2Cl)on1 (stereo not given)
47 | 672 | Cc1cccc(NC(=O)Cn2c(N3CCOCC3)nc(C)cc2=O)c1
48 | 568 | CCSc1ccccc1C(=O)N1CCN(CCn2cccn2)CC1
49 | 670 | O=C(O)CCCCC(CCSCc1ccccc1)SCc1ccccc1 (stereo not given)
50 | 1080 | Cc1cc(-c2nc(-c3ccc(F)cc3)no2)c(C)n1CC(=O)NC1CCCC1
51 | 952 | CCCC(=O)Nc1nc2ccc(CCC(=O)Nc3ccc(CC)cc3)cc2s1
52 | 782 | COc1ccc(NC(=O)c2cn(-c3cc(N(C)C)ncn3)cn2)cc1F
53 | 675 | CC1CCN(c2cc(-c3nccn3CC(=O)NC3CCCCC3)ccn2)CC1
54 | 856 | CCC(=O)N(C1CCOCC1)C1CCN(S(=O)(=O)c2ccc(F)c(F)c2)CC1
55 | 650 | Cc1cnc(CC2CCN(S(=O)(=O)c3ccccc3)C2)n1C(C)C (stereo not given)
56 | 834 | Cc1ccc(-n2c(=O)c3c(cc(C)n3C)n(CC(=O)Nc3ccccc3)c2=O)cc1
57 | 790 | O=C(Nc1ccccc1F)C1CC(=O)N(CCc2c[nH]c3ccc(F)cc23)C1 (stereo not given)
58 | 902 | O=C1NC2(CCN(C(=O)Nc3cccc(C(F)(F)F)c3)CC2)N=C1c1ccccc1
59 | 580 | CCCc1cc(N2CCN(C(=O)c3ccncc3)CC2)nc2nnc(CC)n12
60 | 697 | Cc1ccc(-n2nnc(C(=O)O)c2-c2ccccn2)c(F)c1
61 | 586 | O=C(NCc1nnc(SCc2ccccn2)o1)c1ccccc1
62 | 660 | COC(=O)c1ccc2c(=O)n(-c3ccc4c(c3)OCO4)c(N3CCN(c4ccccn4)CC3)nc2c1
63 | 912 | O=C(Nc1ccccc1Cl)N1CCC(n2c(C(F)(F)F)nc3cccnc32)CC1
64 | 639 | Cc1ccc(-c2nc3n(c2CNC(=O)c2ccco2)CCS3)cc1
65 | 1080 | CCCC(=O)N1CCc2c([nH]c3ccccc23)C1c1ccccc1 (stereo not given)
66 | 579 | CN(C)C(=O)CN1CCN(c2cc(C(=O)O)c3cc(NC(=O)c4ccc(F)cc4)ccc3n2)CC1

Row | RP-LC retention time [s] | Compound
67 | 637 | O=C(NC1CCCC1)c1c2c(nc3ccccc13)CCC2
68 | 683 | COc1cc(-c2nc3ncccn3c2Nc2c(C)cccc2C)ccc1O
69 | 700 | Cn1c(N2CCCC(C(=O)Nc3ccc(F)cc3F)C2)cc(=O)n(C)c1=O (stereo not given)
70 | 916 | CCOc1ccc(Cl)cc1S(=O)(=O)N1CCC(C(=O)NC2CCCC2)CC1
71 | 922 | COc1ccc(-c2nn(CCCC(=O)N3CCN(c4ccccc4)CC3)c(=O)c3noc(C)c23)cc1
72 | 656 | COc1cc(CCNCc2c(C(=O)O)n(C)c3ccccc23)cc(OC)c1OC
73 | 885 | O=C(NC1CCCCCCC1)C1CCN(C(=O)c2ncn3c2COC(c2ccccc2)C3)CC1 (stereo not given)
74 | 751 | Cc1nn(CC(=O)N2CCN(c3ccc(F)cc3)CC2)c(=O)c2noc(C)c12
75 | 689 | O=C(Nc1ccc(F)cc1)C1CCCN(c2nnc3ccc(Cl)cn23)C1 (stereo not given)
76 | 680 | Cn1c(N2CCCC(C(=O)NCc3ccc(F)cc3)C2)cc(=O)n(C)c1=O (stereo not given)
77 | 585 | COCCNC(=O)c1nc2cccnc2n(C)c1=O
78 | 573 | CCN(CCNC(=O)c1cc2c(s1)CN(C(C)C)C2)c1cccc(C)c1
79 | 783 | Cc1cccc(NC(=O)Cn2nc(N3CCOCC3)c3ccccc3c2=O)c1
80 | 819 | O=C(CSCc1ccccc1)NCC1(c2cccs2)CCOCC1
81 | 568 | CC(C)CN1C(=O)c2cccn2CC1C(=O)NCCN1CCOCC1 (stereo not given)
82 | 612 | O=C(NCc1cccnc1)c1c2c(nc3ccccc13)C(=O)N(C1CCCCC1)C2
83 | 566 | CC(C)(C)S(=O)(=O)c1ccc(N2CCN(Cc3ccccc3)CC2)nn1
84 | 632 | Cc1ccc(C)c(NC(=O)N2CCN(c3cc(-c4cccnc4)[nH]n3)CC2)c1
85 | 679 | O=C(CC1=NS(=O)(=O)c2ccccc2N1)Nc1ccc(F)cc1F
86 | 763 | CSc1ccc(CNC(=O)C2CCCN(c3nccc(C)n3)C2)cc1 (stereo not given)
87 | 812 | O=C(NCc1ccc(Cl)cc1)C1CCCN(c2ncnc3c2nc2n3CCCCC2)C1 (stereo not given)
88 | 701 | Cc1noc([C@@H]2CC(F)(F)CN2C(=O)c2nccn2C)n1

Row | Compound | RP-LC retention time [s]
89 | COc1ccc2c(c1)C1(CCN(C(=O)C(C)C)C1)C(=O)N2 (stereo not given) | 646
90 | Cn1c(CN2CCN(C(=O)Cc3ccc(Cl)cc3)CC2)nc2cc(C(=O)N3CCCC3)ccc21 | 646
